Assay results from ChEMBL document CHEMBL6182867, “Discovery of ultra short β-peptoids with selective activity against drug-resistant Mycobacterium tuberculosis” (Eur J Med Chem, 2025).
Values after ≈ are worked out from the molar mass of the structure shown. Active and inactive are the calls of the source. No cut-off for these calls is given here.

How the values were obtained:
[1] = system: Mycobacterium tuberculosis; test: Antitubercular activity against Mycobacterium tuberculosis KMA 4439 by microplate alamar blue assay; type: functional
[2] = system: Mycobacteroides abscessus; test: Antibacterial activity against Mycobacterium abscessus ATCC 19977 assessed as growth inhibition at 100 ug/ml incubated for 3 days by microplate alamar blue assay relative to control; type: functional; conditions: ATCC 19977, 72 h, time 3 day, read-out: GI
Mitochondrial membrane [3] = test: Induction of […] membrane potential loss in Mycobacterium tuberculosis H37Rv at <=MIC measured after 24 hrs by DiOC2 dye based fluorescence assay; type: cell membranes
Enterococcus faecium = test: Antibacterial activity against Enterococcus faecium by microplate alamar blue assay; type: functional
[4] = system: Mycobacterium tuberculosis; test: Synergistic antitubercular activity against Mycobacterium tuberculosis H37Rv in presence of bedaquiline by microplate alamar blue assay (reference value: 2.59 uM); type: functional
[5] = system: Mycobacterium tuberculosis; test: Antitubercular activity against Mycobacterium tuberculosis KMA 3899 by microplate alamar blue assay; type: functional
[6] = system: Mycobacterium tuberculosis; test: Antitubercular activity against Mycobacterium tuberculosis H37Rv assessed as post antibiotic affect up to 100 ug/ml measured daily for up to 14 days by luminescence assay; type: functional, organism-based; conditions: dose <= 100.0 µg/ml, time <= 14.0 day
Mycobacterium avium [7] = test: Antibacterial activity against Mycobacterium avium ATCC 15769 incubated for 6 days by microplate alamar blue assay; type: functional; conditions: ATCC 15769, 144 h, time 6 day
Mycobacteroides chelonae [8] = test: Antibacterial activity against Mycobacteroides chelonae ATCC 35752 incubated for 3 days by microplate alamar blue assay; type: functional; conditions: ATCC 35752, 72 h, time 3 day
[9] = system: Mycobacterium tuberculosis; test: Antitubercular activity against Mycobacterium tuberculosis KMA 5282 by microplate alamar blue assay; type: functional
[10] = system: Mycobacterium tuberculosis; test: Antitubercular activity against Mycobacterium tuberculosis H37Rv ATCC 27294 by microplate alamar blue assay; type: functional
[11] = system: Mycobacteroides abscessus; test: Antibacterial activity against Mycobacterium abscessus ATCC 19977 incubated for 3 days by microplate alamar blue assay; type: functional; conditions: ATCC 19977, 72 h, time 3 day
Mycobacterium marinum [12] = test: Antibacterial activity against Mycobacterium marinum ATCC 927 assessed as growth inhibition at 100 ug/ml incubated for 5 days by microplate alamar blue assay relative to control; type: functional; conditions: ATCC 927, 120 h, time 5 day, read-out: GI
Mycobacterium avium [13] = test: Antibacterial activity against Mycobacterium avium ATCC 15769 assessed as growth inhibition at 100 ug/ml incubated for 6 days by microplate alamar blue assay relative to control; type: functional; conditions: ATCC 15769, 144 h, time 6 day, read-out: GI
[14] = system: Mycobacterium tuberculosis; test: Bactericidal activity against Mycobacterium tuberculosis H37Rv measured up to 7 days by luminescence assay; type: functional; conditions: time <= 7 day
[15] = system: Mycobacterium tuberculosis; test: Synergistic antitubercular activity against Mycobacterium tuberculosis H37Rv assessed as isoniazid MIC=>90 at 0.4 ug/ml by microplate alamar blue assay (reference value: 0.12 uM); type: functional; conditions: dose 0.4 µg/ml
[16] = system: Mycobacterium tuberculosis; test: Synergistic antitubercular activity against Mycobacterium tuberculosis H37Rv in presence of isoniazid by microplate alamar blue assay (reference value: 2.59 uM); type: functional
Candida albicans = test: Antifungal activity against Candida albicans by microplate alamar blue assay; type: functional
Mycobacterium kansasii [17] = test: Antibacterial activity against Mycobacterium kansasii ATCC 12478 assessed as growth inhibition at 100 ug/ml incubated for 7 days by microplate alamar blue assay relative to control; type: functional; conditions: ATCC 12478, 168 h, time 7 day, read-out: GI
[18] = system: Mycobacterium tuberculosis; test: Antitubercular activity against Mycobacterium tuberculosis H37Rv by microplate alamar blue assay; type: functional
Mycobacterium kansasii [19] = test: Antibacterial activity against Mycobacterium kansasii ATCC 12478 incubated for 7 days by microplate alamar blue assay; type: functional; conditions: ATCC 12478, 168 h, time 7 day
Mycobacterium marinum [20] = test: Antibacterial activity against Mycobacterium marinum ATCC 927 incubated for 5 days by microplate alamar blue assay; type: functional; conditions: ATCC 927, 120 h, time 5 day
Mitochondrial membrane [21] = test: Induction of […] membrane potential loss in Mycobacterium tuberculosis H37Rv at <=MIC measured after 15 mins by DiOC2 dye based fluorescence assay; type: cell membranes
[22] = system: Mycobacterium tuberculosis; test: Synergistic antitubercular activity against Mycobacterium tuberculosis H37Rv assessed as bedaquiline MIC=>90 at 0.4 ug/ml by microplate alamar blue assay (reference value: 0.05 uM); type: functional; conditions: dose 0.4 µg/ml
[23] = Cytotoxicity against African green monkey Vero cells measured after 3 days by resazurin dye based fluorescence assay; type: toxicity, cell-based; conditions: African green monkey (Chlorocebus sabaeus)
Pseudomonas aeruginosa = test: Antibacterial activity against Pseudomonas aeruginosa by microplate alamar blue assay; type: functional
Klebsiella aerogenes = test: Antibacterial activity against Enterobacter aerogenes by microplate alamar blue assay; type: functional
Acinetobacter baumannii = test: Antibacterial activity against Acinetobacter baumannii by microplate alamar blue assay; type: functional
[24] = system: Mycobacterium tuberculosis; test: Synergistic antitubercular activity against Mycobacterium tuberculosis H37Rv in presence of rifampin by microplate alamar blue assay (reference value: 2.59 uM); type: functional
[25] = system: Mycobacterium tuberculosis; test: Antitubercular activity against Mycobacterium tuberculosis KMA 4244 by microplate alamar blue assay; type: functional
Klebsiella pneumoniae = test: Antibacterial activity against Klebsiella pneumoniae by microplate alamar blue assay; type: functional
Mycobacteroides chelonae [26] = test: Antibacterial activity against Mycobacteroides chelonae ATCC 35752 assessed as growth inhibition at 100 ug/ml incubated for 3 days by microplate alamar blue assay relative to control; type: functional; conditions: ATCC 35752, 72 h, time 3 day, read-out: GI
[27] = system: Mycobacterium tuberculosis; test: Antitubercular activity against Mycobacterium tuberculosis KMA 1354 by microplate alamar blue assay; type: functional
Staphylococcus aureus = test: Antibacterial activity against Staphylococcus aureus by microplate alamar blue assay; type: functional
[28] = system: Mycobacterium tuberculosis; test: Synergistic antitubercular activity against Mycobacterium tuberculosis H37Rv assessed as rifampin MIC=>90 at 0.4 ug/ml by microplate alamar blue assay (reference value: 0.06 uM); type: functional; conditions: dose 0.4 µg/ml
[29] = system: Mycobacterium tuberculosis; test: Synergistic antitubercular activity against Mycobacterium tuberculosis H37Rv assessed as rifampin MIC=>90 at 0.8 ug/ml by microplate alamar blue assay (reference value: 0.06 uM); type: functional; conditions: dose 0.8 µg/ml
[30] = system: Mycobacterium tuberculosis; test: Synergistic antitubercular activity against Mycobacterium tuberculosis H37Rv in presence of bedaquiline by microplate alamar blue assay (reference value: 3.08 uM); type: functional
[31] = system: Mycobacterium tuberculosis; test: Synergistic antitubercular activity against Mycobacterium tuberculosis H37Rv assessed as bedaquiline MIC=>90 at 0.8 ug/ml by microplate alamar blue assay (reference value: 0.05 uM); type: functional; conditions: dose 0.8 µg/ml
[32] = system: Mycobacterium tuberculosis; test: Synergistic antitubercular activity against Mycobacterium tuberculosis H37Rv in presence of rifampin by microplate alamar blue assay (reference value: 3.08 uM); type: functional
[33] = system: Mycobacterium tuberculosis; test: Synergistic antitubercular activity against Mycobacterium tuberculosis H37Rv assessed as isoniazid MIC=>90 at 0.8 ug/ml by microplate alamar blue assay (reference value: 0.12 uM); type: functional; conditions: dose 0.8 µg/ml
[34] = system: Mycobacterium tuberculosis; test: Synergistic antitubercular activity against Mycobacterium tuberculosis H37Rv in presence of isoniazid by microplate alamar blue assay (reference value: 3.08 uM); type: functional

| Structure (SMILES) | MIC90 [1] [µg/mL] | inhibition of growth at 100 µg/mL [2] [%] | Activity (Mitochondrial membrane [3]) | MIC90 (Enterococcus faecium) [µg/mL] | MIC90 [5] [µg/mL] | Activity [6] | MIC90 (Mycobacterium avium [7]) [µg/mL] | MIC90 (Mycobacteroides chelonae [8]) [µg/mL] | MIC90 [9] [µg/mL] | MIC90 [10] [µg/mL] | MIC90 [11] [µg/mL] | inhibition of growth at 100 µg/mL (Mycobacterium marinum [12]) [%] | inhibition of growth at 100 µg/mL (Mycobacterium avium [13]) [%] | MBC99 [14] [µg/mL] | MIC90 (Candida albicans) [µg/mL] | inhibition of growth at 100 µg/mL (Mycobacterium kansasii [17]) [%] | MIC90 [18] [µg/mL] | MIC90 (Mycobacterium kansasii [19]) [µg/mL] | MIC90 (Mycobacterium marinum [20]) [µg/mL] | Activity (Mitochondrial membrane [21]) | further results |
| --- | --- | --- | --- | --- | --- | --- | --- | --- | --- | --- | --- | --- | --- | --- | --- | --- | --- | --- | --- | --- | --- |
| CC(C)N(C(=O)CCNCCCC1CCCC1)C(C)C | 3.11 (≈ 11 µM) | 0 | inactive | 49.2 (≈ 174 µM) | 1.54 (≈ 5.45 µM) | inactive | > 100 | > 100 | 4.37 (≈ 15.5 µM) | 1.48 (≈ 5.24 µM) | > 100 | 26 | 0 | 3020 (≈ 10700 µM) | 49.6 (≈ 176 µM) | 0 | 1.48 (≈ 5.24 µM) | > 100 | > 100 | inactive | MIC [4]: 2.33 µg/mL; MIC [15]: 0.12 µM; MIC [16]: 2.45 µg/mL; MIC [22]: 0.04 µM; IC50 at 3 days [23]: 69.7 µM; MIC90 (Pseudomonas aeruginosa): > 100 µg/mL; MIC90 (Klebsiella aerogenes): > 100 µg/mL; MIC90 (Acinetobacter baumannii): > 100 µg/mL; MIC [24]: 1.38 µg/mL; MIC90 [25]: 2.92 µg/mL (≈ 10.3 µM); MIC90 (Klebsiella pneumoniae): > 100 µg/mL; inhibition of growth at 100 µg/mL (Mycobacteroides chelonae [26]): 18%; MIC90 [27]: 1.8 µg/mL (≈ 6.37 µM); MIC90 (Staphylococcus aureus): 48.1 µg/mL (≈ 170 µM); MIC [28]: 0.03 µM |
| CC(C)N(C(=O)CCNCCC(c1ccccc1)c1ccccc1)C(C)C | 8.79 (≈ 24 µM) | 0 | inactive | 95.8 (≈ 261 µM) | 4.68 (≈ 12.8 µM) | inactive | > 100 | > 100 | 8.73 (≈ 23.8 µM) | 3.11 (≈ 8.48 µM) | > 100 | 90 | 0 | 5480 (≈ 15000 µM) | > 100 | 0 | 2.97 (≈ 8.1 µM) | > 100 | > 100 | inactive | MIC [29]: 0.04 µM; MIC [30]: 2.99 µg/mL; MIC [31]: 0.03 µM; MIC [32]: 2.01 µg/mL; MIC [33]: 0.12 µM; IC50 at 3 days [23]: 45.9 µM; MIC90 (Pseudomonas aeruginosa): > 100 µg/mL; MIC90 (Klebsiella aerogenes): > 100 µg/mL; MIC90 (Acinetobacter baumannii): > 100 µg/mL; MIC [34]: 3.06 µg/mL; MIC90 [25]: 6.11 µg/mL (≈ 16.7 µM); MIC90 (Klebsiella pneumoniae): > 100 µg/mL; inhibition of growth at 100 µg/mL (Mycobacteroides chelonae [26]): 74%; MIC90 [27]: 4.58 µg/mL (≈ 12.5 µM); MIC90 (Staphylococcus aureus): 96.5 µg/mL (≈ 263 µM) |
